Test results as given in patent publication US20240122212A1 (SUNTORY HOLDINGS LIMITED, priority 2020, published 2024).

Legend:
[1] = Basic taste quality sensory evaluation by trained panelists, spitting test, against 6% sucrose control (Example 1); format: in vivo, human; conditions: scale −3 to 3, 0 = no difference from 6% sucrose control; D-allulose 8.57 w/v %, D-arabinose 10 w/v % in pure water; 4 panelists
Description: In each evaluation item, the rating on a scale of −3 point to 3 point was performed, with the case where there is no difference from the control solution being 0. Quicker in sweetness onset, higher sweetness intensity, shorter lingering sweet aftertaste, lower bitterness intensity, and shorter lingering bitter aftertaste compared to the control were rated near 3 points. Slower in sweetness onset, lower sweetness intensity, longer lingering sweet aftertaste, higher bitterness intensity, and longer lingering bitter aftertaste compared to the control were rated near −3 points. That is, the closer to 0 point, the closer to the control. The evaluation was carried out by those (4 persons) who received sensory trainings as panelists by spitting test. The amount of a sweet substance contained in each sample solution was adjusted to be equal to the control solution on the calculation. […] The energy (kcal/100 ml) was calculated from the amount of the sweetener added.

[2] = Degree of sweetness relative to sucrose; conditions: for degree of sweetness, median value: median of the range, sucrose = 1; for degree of sweetness at sweetness intensity of 0.3, times as much as that of sucrose: sweetness intensity 0.3; for degree of sweetness at sweetness intensity of 4.3, times as much as that of sucrose: sweetness intensity 4.3
Description: The “sweetness intensity” means an intensity of sweetness of a substance. […] A numerical value obtained by multiplying the degree of sweetness by a concentration Brix value of glucose is the sweetness intensity of glucose in terms of sucrose. Thus, when a concentration of glucose in terms of sucrose is Brix 1.5, the sweetness intensity of glucose is 0.65×1.5=0.975. The sweetness intensity of a sweetener in terms of sucrose can be calculated from a degree of sweetness shown in the following table or a value of a known degree of sweetness.
For example, when the sweetness intensity of sucrose per unit concentration Brix 1 is defined as a degree of sweetness of 1, a degree of sweetness of rebaudioside D is about 200 to 250 (median value 225), a degree of sweetness of rebaudioside M is about 200 to 260 (median value 230), a degree of sweetness of rebaudioside B is about 325, a degree of sweetness of rebaudioside A is about 200 to 300 (median value 250), a degree of sweetness of rebaudioside N is about 200 to 250 (median value 225), a degree of sweetness of rebaudioside O is about 200 to 250 (median value 225), a degree of sweetness of rebaudioside E is about 70 to 80 (median value 75), a degree of sweetness of a Luo han guo extract (containing 40% of Mog V) is about 110 to 150 (median value 130), a degree of sweetness of mogroside V is about 240 to 300 (median value 270), and a degree of sweetness of thaumatin is about 2,000, and a degree of sweetness of brazzein is about 500 to 2,000 (median value 1,250). The numerical value obtained by multiplying these degrees of sweetness by a concentration (w/v % (considered to be the same as w/w % in the case of a beverage)) of the high-intensity sweetener in a fruit juice beverage is a sweetness intensity of the high-intensity sweetener. The relative ratio in degrees of sweetness of various sweeteners to the degree of sweetness of 1 of sucrose can be determined from a known sugar sweetness conversion table, and the like. In the present description, when a degree of sweetness is shown in a numerical value range, the median value may be used. However, a sweetener having different values in a degree of sweetness by literatures, a relative ratio in a degree of sweetness to the degree of sweetness of 1 of sucrose can be defined by a sensory test. Examples of such a sensory test include a method in which samples were prepared by adding sucrose having a sweetness intensity of Brix 3.0 to 5.0 in 0.5 increments to pure water, and of which a sucrose-added sample having a sweetness intensity equal to an aqueous solution of a sweetener in a predetermined concentration is selected.
Additionally, for a sweetener with a variable degree of sweetness as a sweetness intensity increases, degrees of sweetness in different concentrations are actually measured and plotted whereby a degree of sweetness in a predetermined concentration may be calculated from the obtained approximate curve.

[3] = value used to design the sample solutions

Row | Compound | degree of sweetness, median value [2] | degree of sweetness at sweetness intensity of 0.3, times as much as that of sucrose [2, 3] [times] | degree of sweetness at sweetness intensity of 4.3, times as much as that of sucrose [2, 3] [times] | further results
1 | O=C(CO)[C@H](O)[C@H](O)[C@H](O)CO [D-Allulose] |  |  |  | Bitterness intensity [1]: −1 point; Lingering bitter aftertaste [1]: −0.625 point; Lingering sweet aftertaste [1]: 0.125 point; Quickness in sweetness onset [1]: 0.125 point; Sweetness intensity [1]: −0.125 point; degree of sweetness, times as much as that of sucrose [2, 3]: 0.7 times
2 | O=C[C@H](O)[C@@H](O)[C@H](O)[C@H](O)CO [Glucose] | 0.65 |  |  | 
3 | C[C@H](CC[C@@H](O[C@@H]1O[C@H](CO[C@@H]2O[C@H](CO)[C@@H](O)[C@H](O)[C@H]2O)[C@@H](O)[C@H](O)[C@H]1O[C@@H]1O[C@H](CO)[C@@H](O)[C@H](O)[C@H]1O)C(C)(C)O)[C@H]1CC[C@@]2(C)[C@@H]3CC=C4[C@@H](CC[C@H](O[C@@H]5O[C@H](CO[C@@H]6O[C@H](CO)[C@@H](O)[C@H](O)[C@H]6O)[C@@H](O)[C@H](O)[C@H]5O)C4(C)C)[C@]3(C)[C@H](O)C[C@]12C [mogroside V] | 270 |  |  | 
4 | C=C1C[C@@]23CC[C@H]4[C@@](C)(CCC[C@@]4(C)C(=O)O[C@@H]4O[C@H](CO)[C@@H](O)[C@H](O)[C@H]4O)[C@@H]2CC[C@]1(O[C@@H]1O[C@H](CO)[C@@H](O)[C@H](O[C@@H]2O[C@H](CO)[C@@H](O)[C@H](O)[C@H]2O)[C@H]1O[C@@H]1O[C@H](CO)[C@@H](O)[C@H](O)[C@H]1O)C3 [rebaudioside A] | 250 | 100 | 190.5 | 
5 | C=C1C[C@@]23CC[C@H]4[C@@](C)(CCC[C@@]4(C)C(=O)O[C@@H]4O[C@H](CO)[C@@H](O)[C@H](O)[C@H]4O[C@@H]4O[C@H](CO)[C@@H](O)[C@H](O)[C@H]4O)[C@@H]2CC[C@]1(O[C@@H]1O[C@H](CO)[C@@H](O)[C@H](O[C@@H]2O[C@H](CO)[C@@H](O)[C@H](O)[C@H]2O)[C@H]1O[C@@H]1O[C@H](CO)[C@@H](O)[C@H](O)[C@H]1O)C3 [rebaudioside D] | 225 | 100 | 190.5 | 
6 | C=C1C[C@@]23CC[C@H]4[C@@](C)(CCC[C@@]4(C)C(=O)O[C@@H]4O[C@H](CO)[C@@H](O)[C@H](O)[C@H]4O[C@@H]4O[C@H](CO)[C@@H](O)[C@H](O)[C@H]4O)[C@@H]2CC[C@]1(O[C@@H]1O[C@H](CO)[C@@H](O)[C@H](O)[C@H]1O[C@@H]1O[C@H](CO)[C@@H](O)[C@H](O)[C@H]1O)C3 [rebaudioside E] | 75 |  |  | 
7 | C=C1C[C@@]23CC[C@H]4[C@@](C)(CCC[C@@]4(C)C(=O)O[C@@H]4O[C@H](CO)[C@@H](O)[C@H](O[C@@H]5O[C@H](CO)[C@@H](O)[C@H](O)[C@H]5O)[C@H]4O[C@@H]4O[C@H](CO)[C@@H](O)[C@H](O)[C@H]4O)[C@@H]2CC[C@]1(O[C@@H]1O[C@H](CO)[C@@H](O)[C@H](O[C@@H]2O[C@H](CO)[C@@H](O)[C@H](O)[C@H]2O)[C@H]1O[C@@H]1O[C@H](CO)[C@@H](O)[C@H](O)[C@H]1O)C3 [rebaudioside M] | 230 | 100 | 190.5 | 
8 | C=C1C[C@@]23CC[C@H]4[C@@](C)(CCC[C@@]4(C)C(=O)O[C@@H]4O[C@H](CO)[C@@H](O)[C@H](O[C@@H]5O[C@H](CO)[C@@H](O)[C@H](O)[C@H]5O)[C@H]4O[C@@H]4O[C@@H](C)[C@H](O)[C@@H](O)[C@H]4O)[C@@H]2CC[C@]1(O[C@@H]1O[C@H](CO)[C@@H](O)[C@H](O[C@@H]2O[C@H](CO)[C@@H](O)[C@H](O)[C@H]2O)[C@H]1O[C@@H]1O[C@H](CO)[C@@H](O)[C@H](O)[C@H]1O)C3 [rebaudioside N] | 225 |  |  | 
9 | C=C1C[C@@]23CC[C@H]4[C@@](C)(CCC[C@@]4(C)C(=O)O[C@@H]4O[C@H](CO)[C@@H](O)[C@H](O[C@@H]5O[C@H](CO)[C@@H](O)[C@H](O)[C@H]5O)[C@H]4O[C@@H]4O[C@@H](C)[C@H](O)[C@@H](O[C@@H]5O[C@H](CO)[C@@H](O)[C@H](O)[C@H]5O)[C@H]4O)[C@@H]2CC[C@]1(O[C@@H]1O[C@H](CO)[C@@H](O)[C@H](O[C@@H]2O[C@H](CO)[C@@H](O)[C@H](O)[C@H]2O)[C@H]1O[C@@H]1O[C@H](CO)[C@@H](O)[C@H](O)[C@H]1O)C3 [rebaudioside O] | 225 |  |  | 
10 | brazzein: sweet protein of Pentadiplandra brazzeana (QDKCKKVYENYPVSKCQLANQCNYDCKLDKHARSGECFYDEKRNLQCICDYCEY; UniProt P56552 1-54, looked up) | 1,250 |  |  | 
